In patent publication US10765676B2, “Trk-inhibiting compound” (ONO PHARMACEUTICAL CO., LTD., priority 2013, dated 2020):

Tested on: sodium monoiodoacetate-induced model rats
Experiment: Analgesic effect on sodium monoiodoacetate-induced model rats
Type: in vivo, rat
Conditions: MIA-induced model rats, day 24
[1] = right hind limb weight load ratio, test substance orally twice a day from day 14, experiment with morphine as positive control (Table 8)
[2] = right hind limb weight load ratio, test substance orally twice a day from day 14, experiment with tramadol as positive control (Table 7)

Row | Compound | Percent improvement (%) [1] | Percent improvement (%) [2] | other results
1 | CN1CC[C@]23c4c5ccc(O)c4O[C@H]2[C@@H](O)C=C[C@H]3[C@H]1C5 [Morphine, morphine, reference compound] |  |  | Percent improvement (%) (3 mg/kg subcutaneously 1 hour before the measurement, positive control drug): 54%
2 | CS(=O)(=O)c1ccc(C(F)(F)F)cc1NC(=O)Nc1cnc(Oc2ccc(-c3cc(C(F)(F)F)cnc3N)cc2)nc1 [Example 15-98, 1-(2-{4-[2-amino-5-(trifluoromethyl)-3-pyridinyl]phenoxy}-5-pyrimidinyl)-3-[2-(methylsulfonyl)-5-(trifluoromethyl)phenyl]urea] | 57% |  | 
3 | Nc1ncc(C(F)(F)F)cc1-c1ccc(Oc2ncc(NC(=O)Nc3cc(C(F)(F)F)ccc3-n3cc(Cl)cn3)cn2)cc1 [Example 15-87, 1-(2-{4-[2-amino-5-(trifluoromethyl)-3-pyridinyl]phenoxy}-5-pyrimidinyl)-3-[2-(4-chloro-1H-pyrazol-1-yl)-5-(trifluoromethyl)phenyl]urea] | 57% |  | 
4 | Nc1ncc(F)cc1-c1ccc(Oc2ncc(NC(=O)Nc3cc(C(F)(F)F)ccc3-n3ccnn3)cn2)cc1 [Example 14-5, 1-(2-(1H-1,2,3-triazol-1-yl)-5-(trifluoromethyl)phenyl)-3-(2-(4-(2-amino-5-fluoropyridin-3-yl)phenoxy)pyrimidin-5-yl)urea] |  | 47% | 
5 | CN(C)c1ccn2ncc(-c3ccc(Oc4ncc(NC(=O)Nc5cc(C(F)(F)F)ccc5-c5ccccc5)cn4)cc3)c2n1 [Example 21-70, 1-(2-{4-[5-(dimethylamino)pyrazolo[1,5-a]pyrimidin-3-yl]phenoxy}-5-pyrimidinyl)-3-[4-(trifluoromethyl)-2-biphenylyl]urea] | 61% |  | 
6 | CN(C)c1ccn2ncc(-c3ccc(Oc4ncc(NC(=O)Nc5cc(C(F)(F)F)ccc5-c5ccnn5C)cn4)cc3)c2n1 [Example 21-51, 1-(2-{4-[5-(dimethylamino)pyrazolo[1,5-a]pyrimidin-3-yl]phenoxy}-5-pyrimidinyl)-3-[2-(1-methyl-1H-pyrazol-5-yl)-5-(trifluoromethyl)phenyl]urea] | 68% |  | 
7 | CS(=O)(=O)c1ccc(C(F)(F)F)cc1NC(=O)Nc1cnc(Oc2ccc(-c3cc(Cl)cnc3N)cc2)nc1 [Example 15-104, 1-{2-[4-(2-amino-5-chloro-3-pyridinyl)phenoxy]-5-pyrimidinyl}-3-[2-(methylsulfonyl)-5-(trifluoromethyl)phenyl]urea] | 54% |  | 
8 | COc1cccc(C2(O)CCCCC2CN(C)C)c1 (centres unmarked) [Tramadol, tramadol, reference compound] |  |  | Percent improvement (%) (10 mg/kg subcutaneously 1 hour before the measurement, positive control drug): 43%
9 | O=C(Nc1cnc(Oc2ccc(-c3cnn4cccnc34)cc2)nc1)Nc1cc(C(F)(F)F)ccc1-c1cccnc1 [Example 21-13, l-(2-(4-(pyrazolo[1,5-a]pyrimidin-3-yl)phenoxy)pyrimidin-5-yl)-3-(2-(pyridin-3-yl)-5-(trifluoromethyl)phenyl)urea] |  | 66% | 
10 | Nc1ncc(Cl)cc1-c1ccc(Oc2ncc(NC(=O)Nc3cc(C(F)(F)F)ccc3-n3cccn3)cn2)cc1 [Example 7, 1-(2-(1H-pyrazol-1-yl)-5-(trifluoromethyl)phenyl)-3-(2-(4-(2-amino-5-chloropyridin-3-yl)phenoxy)pyrimidin-5-yl) urea] |  | 61% | 
11 | Nc1ncc(Cl)cc1-c1ccc(Oc2ncc(NC(=O)Nc3cc(C(F)(F)F)ccc3-n3cc(Cl)cn3)cn2)cc1 [Example 15-63, 1-{2-[4-(2-amino-5-chloro-3-pyridinyl)phenoxy]-5-pyrimidinyl}-3-[2-(4-chloro-1H-pyrazol-1-yl)-5-(trifluoromethyl)phenyl]urea] | 53% |  | 
12 | Nc1ncc(F)cc1-c1ccc(Oc2ncc(NC(=O)Nc3cc(C(F)(F)F)ccc3-c3cccnc3)cn2)cc1 [Example 14-6, 1-(2-(4-(2-amino-5-fluoropyridin-3-yl)phenoxy)pyrimidin-5-yl)-3-(2-(pyridin-3-yl)-5-(trifluoromethyl)phenyl)urea] | 53% |  | 
13 | Nc1ncc(Cl)cc1-c1ccc(Oc2ncc(NC(=O)Nc3cc(C(F)(F)F)ccc3-c3ccccc3)cn2)cc1 [Example 15-55, 1-{2-[4-(2-amino-5-chloro-3-pyridinyl)phenoxy]-5-pyrimidinyl}-3-[4-(trifluoromethyl)-2-biphenylyl]urea] | 62% |  | 
14 | Nc1ncc(C(F)(F)F)cc1-c1ccc(Oc2ncc(NC(=O)Nc3cc(C(F)(F)F)ccc3-n3ccc(C(F)(F)F)n3)cn2)cc1 [Example 15-52, 1-(2-{4-[2-amino-5-(trifluoromethyl)-3-pyridinyl]phenoxy}-5-pyrimidinyl)-3-{5-(trifluoromethyl)-2-[3-(trifluoromethyl)-1H-pyrazol-1-yl]phenyl}urea] | 60% |  | 
15 | COc1ccn2ncc(-c3ccc(Oc4ncc(NC(=O)Nc5cc(C(F)(F)F)ccc5-c5cccnc5)cn4)cc3)c2n1 [Example 21-9, 1-(2-(4-(5-methoxypyrazolo[1,5-a]pyrimidin-3-yl)phenoxy)pyrimidin-5-yl)-3-(2-(pyridin-3-yl)-5-(trifluoromethyl)phenyl)urea] |  | 64% | 
16 | Cc1cccc(-c2ccc(C(F)(F)F)cc2NC(=O)Nc2cnc(Oc3ccc(-c4cnn5ccc(N(C)C)nc45)cc3)nc2)c1 [Example 21-73, 1-(2-{4-[5-(dimethylamino)pyrazolo[1,5-a]pyrimidin-3-yl]phenoxy}-5-pyrimidinyl)-3-[3′-methyl-4-(trifluoromethyl)-2-biphenylyl]urea] | 62% |  | 
17 | Nc1ncc(Cl)cc1-c1ccc(Oc2ncc(NC(=O)Nc3ccc(C(F)(F)F)cc3C(F)(F)F)cn2)cc1 [Example 15-77, 1-{2-[4-(2-amino-5-chloro-3-pyridinyl)phenoxy]-5-pyrimidinyl}-3-[2,4-bis(trifluoromethyl)phenyl]urea] | 55% |  | 
18 | CN(C)c1ccn2ncc(-c3ccc(Oc4ncc(NC(=O)Nc5cc(C(F)(F)F)ccc5-c5cccnc5)cn4)cc3)c2n1 [Example 21-37, 1-(2-{4-[5-(dimethylamino)pyrazolo[1,5-a]pyrimidin-3-yl]phenoxy}-5-pyrimidinyl)-3-[2-(3-pyridinyl)-5-(trifluoromethyl)phenyl]urea] | 67% |  | 
19 | Nc1ncc(Cl)cc1-c1ccc(Oc2ncc(NC(=O)Nc3ccc(C(F)(F)F)cc3Cl)cn2)cc1 [Example 15-6, 1-(2-(4-(2-amino-5-chloropyridin-3-yl)phenoxy)pyrimidin-5-yl)-3-(2-chloro-4-(trifluoromethyl)phenyl)urea] |  | 51% | 
20 | Cc1cn(-c2ccc(C(F)(F)F)cc2NC(=O)Nc2cnc(Oc3ccc(-c4cc(Cl)cnc4N)cc3)nc2)nn1 [Example 8-1, 1-(2-(4-(2-amino-5-chloropyridin-3-yl)phenoxy)pyrimidin-5-yl)-3-(2-(4-methyl-1H-1,2,3-triazol-1-yl)-5-(trifluoromethyl)phenyl)urea] |  | 60% | 
